Legend:
RARalpha = target: T1, RARalpha (Homo sapiens, UniProt P10276); assay: Transactivation test, HeLa reporter cells (RARalpha); assay type: cell-based
T1 sequence (P10276 183-417 limits assumed): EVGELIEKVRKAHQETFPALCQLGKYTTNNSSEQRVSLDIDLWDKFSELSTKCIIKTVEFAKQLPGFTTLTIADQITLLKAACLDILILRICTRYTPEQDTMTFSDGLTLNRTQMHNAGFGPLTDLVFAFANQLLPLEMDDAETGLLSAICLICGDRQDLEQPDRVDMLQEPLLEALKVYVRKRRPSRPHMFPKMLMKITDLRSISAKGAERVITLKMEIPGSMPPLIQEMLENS
Protocol: (§1) The activation of the receptors by an agonist (activator) in HeLa cells results in the expression of a reporter gene, luciferase, which, in the presence of a substrate, generates light. It is therefore possible to measure the activation of the receptors by quantifying the luminescence produced after incubation of the cells in the presence of a reference antagonist. The activator products displace the antagonist from its site, thus allowing activation of the receptor. The measurement of the activity is carried out by quantifying the increase in the light produced. This measurement makes it possible to determine the activating activity of the compound for use in the invention.
(§2) In this study, a constant which is the affinity of the molecule for the receptor is determined. Since this value can fluctuate depending on the basal activity and the expression of the receptor, it is designated apparent Kd (KdApp). […]
(§3) These cross curves make it possible to determine the AC50 values (concentration at which 50% activation is observed) for the reference ligand at various concentrations of product to be tested. These AC50 values are used to calculate the Schild regression by plotting a straight line corresponding to the Schild equation (“quantitation in receptor pharmacology”, Terry P. Kenakin, Receptors and Channels, 2001, 7, 371-385).
(§4) In the case of an agonist, the AC50 value (concentration that gives 50% of the activity) is calculated by plotting the curve of the product at the concentration of the reference ligand that gives 80% activation. The percentage activation which corresponds to the maximum level of activity obtained is also measured. […]
(§5) The culture medium is removed by turning the plates upside down and 100 μl of a 1:1 PBS (phosphate buffer solution)/luciferin mixture are added to each well. After 5 minutes, the plates are read with a luminescence reader.

RARbeta = target: T2, RARbeta (Homo sapiens, UniProt P10826); assay: Transactivation test, HeLa reporter cells (RARbeta); assay type: cell-based
T2 sequence (P10826 183-417 limits assumed): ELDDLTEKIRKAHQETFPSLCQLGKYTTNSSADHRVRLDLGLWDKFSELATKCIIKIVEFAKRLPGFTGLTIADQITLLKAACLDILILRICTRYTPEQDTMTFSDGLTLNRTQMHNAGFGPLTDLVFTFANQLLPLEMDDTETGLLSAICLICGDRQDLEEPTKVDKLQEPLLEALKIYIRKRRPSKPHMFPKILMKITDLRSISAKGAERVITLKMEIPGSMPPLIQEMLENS
Protocol: as §1, §2, §3, §4, §5

RARgamma = target: T3, RARgamma (Homo sapiens, UniProt P13631); assay: Transactivation test, HeLa reporter cells (RARgamma); assay type: cell-based; conditions: for specificity for RARgamma in comparison with RARalpha and RARbeta: transactivation test, in words
T3 sequence (P13631 185-419 limits assumed): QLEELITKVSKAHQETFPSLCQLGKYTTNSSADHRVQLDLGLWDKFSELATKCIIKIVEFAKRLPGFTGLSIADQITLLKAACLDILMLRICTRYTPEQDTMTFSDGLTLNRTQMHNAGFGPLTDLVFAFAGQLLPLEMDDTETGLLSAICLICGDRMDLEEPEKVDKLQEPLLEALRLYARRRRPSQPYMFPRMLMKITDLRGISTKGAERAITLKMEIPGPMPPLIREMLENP
Protocol: as §1
In this study, a constant which is the affinity of the molecule for the receptor is determined. Since this value can fluctuate depending on the basal activity and the expression of the receptor, it is designated apparent Kd (KdApp).
To determine this constant, “cross curves” for the product to be tested (2-hydroxy-4-[2-hydroxyimino-2-(5,5,8,8-tetramethyl-5,6,7,8-tetrahydronaphthalen-2-yl)ethoxy]benzoic acid), against a reference antagonist, otherwise called reference ligand, 4-(5,5-dimethyl-8-p-tolyl-5,6-dihydronaphthalen-2-ylethynyl)benzoic acid, are produced. The product to be tested is used at 10 concentrations and the reference antagonist at 7 concentrations. In each well (of a 96-well plate), the cells are in contact with one concentration of the product to be tested and one concentration of the reference antagonist.
Measurements are also carried out for the total agonist control, otherwise called 100% control (4-[2-(5,5,8,8-tetramethyl-5,6,7,8-tetrahydronaphthalen-2-yl)propenyl]benzoic acid), and the inverse agonist control, otherwise called 0% control, 4-{(E)-3-[4-(4-tert-butylphenyl)-5,5,8,8-tetramethyl-5,6,7,8-tetrahydronaphthalen-2-yl]-3-oxopropenyl}benzoic acid.
as §3
In the case of an agonist, the AC50 value (concentration that gives 50% of the activity) is calculated by plotting the curve of the product at the concentration of the reference ligand that gives 80% activation. The percentage activation which corresponds to the maximum level of activity obtained is also measured.
The HeLa cell lines used are stable transfectants containing the plasmids ERE-βGlob-Luc-SV-Neo (reporter gene) and RAR (α, β, γ) ER-DBD-puro. These cells are seeded into 96-well plates at a rate of 10,000 cells per well in 100 μl of DMEM medium without phenol red, supplemented with 10% of delipidized calf serum. The plates are then incubated at 37° C., 7% CO2 for 4 hours. […]
as §5

[1] = concentration that gives 50% of the activity, HeLa luciferase reporter

CC1(C)CCC(C)(C)c2cc(C(COc3ccc(C(=O)O)c(O)c3)=NO)ccc21 [Acid compound of the invention, 2-hydroxy-4-[2-hydroxyimino-2-(5,5,8,8-tetramethyl-5,6,7,8-tetrahydronaphthalen-2-yl)ethoxy]benzoic acid]
Kd (RARalpha; apparent Kd, Schild regression against reference antagonist, HeLa luciferase reporter, read-out: RARalpha Kdapp): 4060 nM
RARalpha % activation (RARalpha; at 10 μM, maximum level of activity): 100%
AC50 (RARalpha; [1]): 1700 nM
Kd (RARbeta; apparent Kd, Schild regression against reference antagonist, HeLa luciferase reporter, read-out: RARbeta Kdapp): 1030 nM
RARbeta % Activation (RARbeta; at 5 μM, maximum level of activity): 100%
AC50 (RARbeta; [1]): 600 nM
Kd (RARgamma; apparent Kd, Schild regression against reference antagonist, HeLa luciferase reporter, read-out: RARgamma Kdapp): 8 nM
RARgamma % activation (RARgamma; at 0.04 μM, maximum level of activity): 100%
AC50 (RARgamma; [1]): 9 nM
specificity for RARgamma in comparison with RARalpha and RARbeta (RARgamma; listed as 2-Hydroxy-4-[2-hydroxyimino-2-(5,5,8,8-tetramethyl-5,6,7,8-tetrahydronaphthalen-): selective agonist or activator of the RARgamma receptor
specificity for RARgamma in comparison with RARalpha and RARbeta (RARgamma; listed as 2-hydroxy-4-[2-hydroxyimino-2-(5,5,8,8-tetramethyl-5,6,7,8-tetrahydronaphthalen-): great specificity for the receptor subtype RARgamma

CCOC(=O)c1ccc(OCC(=NO)c2ccc3c(c2)C(C)(C)CCC3(C)C)cc1O [Example 1, ethyl 2-hydroxy-4-[2-hydroxyimino-2-(5,5,8,8-tetramethyl-5,6,7,8-tetrahydronaphthalen-2-yl)ethoxy]benzoate]
melting point: 130 °C

CC(C)COC(=O)c1ccc(OCC(=NO)c2ccc3c(c2)C(C)(C)CCC3(C)C)cc1O [Example 3, isobutyl 2-hydroxy-4-[2-hydroxyimino-2-(5,5,8,8-tetramethyl-5,6,7,8-tetrahydronaphthalen-2-yl)ethoxy]benzoate]
melting point: 96 °C

CC(C)OC(=O)c1ccc(OCC(=NO)c2ccc3c(c2)C(C)(C)CCC3(C)C)cc1O [Example 2, isopropyl 2-hydroxy-4-[2-hydroxyimino-2-(5,5,8,8-tetramethyl-5,6,7,8-tetrahydronaphthalen-2-yl)ethoxy]benzoate]
melting point: 130 °C

— patent US20070249710A1, “Biaromatic compounds and cosmetic/pharmaceutical applications thereof” (GALDERMA RESEARCH & DEVELOPMENT, priority 2004, published 2007)
